The test system of assay [1] is isolated guinea pig hearts. The experiment in a line: Isolated hearts: lipid peroxidation, endothelial apoptosis and coronary flow after cold ischemia and warm reperfusion. The settings on record: 1 nM SS-31 or 100 nM SS-20 in St. Thomas solution. The method, then: Guinea pig hearts were perfused with a cardioplegic solution (St. Thomas solution) alone or St. Thomas solution containing either 1 nM SS-31 or 100 nM SS-20 for 3 min. and then subjected to 18 hours of cold ischemia (4° C.). The hearts were then reperfused with Krebs Henseleit buffer at 34° C. for 90 min. Immunohistochemical analysis of 4-hydroxynonenol (HNE)-modified proteins in paraffin sections from tissue slices were performed by incubation with an anti-HNE antibody (Santa Cruz) and a fluorescent secondary antibody. […] HNE staining was reduced in hearts stored in SS-31 (FIG. 13C) or SS-20 (FIG. 13D).
Guinea pig heats were perfused with a cardioplegic solution (St. Thomas solution) alone or St. Thomas solution containing either 1 nM SS-31 or 100 nM SS-20 for 3 min. and then subjected to 18 hours of cold ischemia (4° C.). The hearts were then reperfused with Krebs Henseleit buffer at 34° C. for 90 min. After deparaffinization, sections were incubated with deoxynucleotidyl transferase (Tdt) with digoxigenin-dNTP for 1 hour. The reaction was stopped with terminating buffer. A fluorescent anti-digoxigenin antibody was then applied.
A significant improvement of coronary blood flow after prolonged cold ischemic storage and warm reperfusion occurred (FIG. 15). Guinea pigs hearts were perfused with a cardioplegic solution (St. Thomas solution) alone or St. Thomas solution containing either 1 nM SS-31 (FIG. 15A) or 100 nM SS-20) (FIG. 15B) for 3 min. and then subjected to 18 hours of cold ischemia (4° C.). The hearts were then reperfused with Krebs Henseleit buffer at 34° C. for 90 min.

For another assay, the system named is CD36. Nature of the assay: CD36 immunostaining in isolated hearts after cold ischemic storage and warm reperfusion. The settings on record: 1 nM SS-31 or 100 nM SS-20 in St. Thomas solution, 18 h at 4° C., 90 min reperfusion at 34° C. Also noted: species or system guinea pig. On the procedure:
Isolated guinea pig hearts were perfused with St. Thomas solution alone, or St. Thomas solution containing 1 nM SS-31 or 100 nM SS-20, for 3 min. and then stored in the same solution at 4° C. for 18 hours. After ischemic storage, hearts were reperfused with 34° C. Kreb-Henseleit solution for 90 min. Hearts freshly isolated from guinea pigs were used as controls.
The hearts were fixed in paraffin and sliced for immunostaining with an anti-CD36 rabbit polyclonal antibody. Two sections are shown for each treatment group. […] The “background” (FIGS. 12A and 12B) represents two sections from a normal non-ischemic heart that was not treated with the primary antibody. “Normal heart” (FIGS. 12C and 12D) represents two sections obtained from a non-ischemic heart.

The mark [2] stands for this setting: 18 h at 4° C., 90 min reperfusion.

“Also recorded” adds a separate entry of the source. Square brackets hold non-standard residues; d marks the D form. Ends that are not written are not given here.

The values below come from US11447523B2, “Methods for reducing CD36 expression” (Cornell Research Foundation, Inc., priority 2005, dated 2022).

For F[dR]FK-NH2 [SS-20], in assay [1] (setting [2]), the “HNE staining (lipid peroxidation) in stored hearts” value is reported as “reduced” and the “endothelial apoptosis in stored hearts” value is “Apoptotic cells were not observed”. For the same substance, the “coronary flow restored, of pre-ischemic flow” value in assay [1] (18 h at 4° C., 90 min reperfusion, pre-ischemic control = 100%) is “approximately 80%”. Further, the “coronary flow (in words)” value in assay [1] (18 h cold ischemia, warm reperfusion) is given as “preserves coronary flow”. For the same substance, the “CD36 staining in stored hearts” value with CD36 was “significantly reduced; also recorded: did not show the upregulation of CD36 expression”.
